Data published in patent publication US10994010B2, “Selective targeting of the CD40L/Mac-1 interaction by small peptide inhibitors and its use for the treatment of inflammation and atherogenesis” (Universitaetsklinikum Freiburg, priority 2010, dated 2021).
No end group written: not given here.

Columns and labels:
[1] = target: T1, CD40L binding to Mac-1 I-domain (Homo sapiens, UniProt P29965); assay: Solid phase binding assay: blocking of CD40L binding to immobilized Mac-1 I-domain by peptides; conditions: for blocking of CD40L / Mac-1 I-domain binding: peptides 50 μM
T1 construct: inserting the coding DNA for amino acids E^108 to L^261 in pHOG-21; His (N); trimerization domain (N); made in house
T1 sequence (P29965 108-261): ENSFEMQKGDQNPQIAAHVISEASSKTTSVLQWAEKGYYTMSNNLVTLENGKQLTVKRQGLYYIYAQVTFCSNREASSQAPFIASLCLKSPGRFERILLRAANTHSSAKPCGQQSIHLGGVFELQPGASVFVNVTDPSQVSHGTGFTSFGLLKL
Procedure: (§1) Solid phase binding assay. Recombinant CD40L was incubated with immobilized Mac-1 I-domain in the presence or absence of blocking peptides. Binding of sCD40L was detected by addition of anti-cmyc-HRP (Invitrogen), TMB-substrate (Pierce), and colorimetric reaction. Alternatively, CD40L (Provitro) was immobilized, and binding of the recombinant Mac-1 I-domain was quantified by addition of anti-His-Biotin (Qiagen), and HRP-coupled streptavidin (Pierce). For the binding to immobilized peptides, CD40L was biotinylated with the Micro Biotinylation Kit (Sigma). A mixture of equal molarities of all peptides served as the positive control in this assay.
The recombinant Mac-1 I-domain was immobilized in 96-well plates (Nunc) in PBS at 4° C. overnight. After blocking in 2% BSA/PBS and subsequent washing with PBS, recombinant CD40L was added to the wells in the indicated concentrations and incubated for 2 hours at 37° C. Effect of the peptides M1-M8 was assessed by incubating CD40L (10 μg/ml) in the presence of peptides (50 μM). After removing of unbound CD40L by washing with 0.1% Tween-20/PBS, anti-c-myc-HRP (Invitrogen) was added and incubated for 2 hours at room temperature. Binding was quantified by addition of TMB-substrate (Pierce), colorimetric reaction at 450 nm. Alternatively, CD40L without a His-tag (Provitro) was immobilized and blocked as described above. Binding of the recombinant Mac-1 I-domain was quantified by addition of anti-His-Biotin monoclonal antibody (Qiagen), HRP-coupled streptavidin (Pierce) and colorimetric reaction at 450 nm. For the specific binding of the Mac-1 I-domain BSA-coated wells were subtracted from the CD40L-coated. Kd was estimated using a one-site binding hyperbola nonlinear regression model with the Software Prism (Graphpad). For quantification of the binding of CD40L to peptides, peptides were immobilized in 96-well plates overnight at 4° C. in 50 mM sodium carbonate, pH 10.6. CD40L was biotinylated using the Micro-Biotinylation-Kit (Sigma) following the manufacturer's instructions and detected by HRP-coupled streptavidin (Pierce) and colorimetric reaction. A mixture of equal molarities of all peptides served as positive control. Absorbance on BSA-coated wells served as negative control and was subtracted.

[2] = tested on: human granulocytes and monocytes; assay: Flow cytometry: binding of CD40L to human granulocytes and monocytes; assay type: cell-based
Procedure: (§2) Flow cytometric analysis, platelet activation assays, and quantification of leukocyte-platelet aggregates, were performed as previously described (Zirlik et al., 2007). Binding of cM7 to CD40L-expressing murine fibroblasts was determined by quantification of FITC-coupled cM7. Binding of CD40L to Mac-1 expressing CHO-cells or human leukocytes was performed by incubation with CD40L (10 μg/ml) and subsequent detection with anti-PentaHis antibody (Qiagen).
(§3) Flow cytometric analyses, as well as platelet activation assays and quantification of leukocyte-platelet aggregates were performed as previously described (Quezada et al., Ann. Rev. Immunol. (2004), pp 307-328). Briefly, murine blood samples were taken by intracardiac puncture. Red cells were lyzed in 155 mM NH4Cl, 5.7 mM K2HPO4, 0.1 mM EDTA, pH 7.3. […] Antibodies for epitope specific fluorescence-activated cell sorting (FACS Calibur, BD) included anti-CD11b, anti-CD115, anti-Gr-1, anti-CD4, anti-CD8, anti-CD20, anti-CD41, anti-CD62P, anti-CD54, anti-CD102, and anti-CD106 (all from Ebioscience). Binding of cM7 to CD40L- or mock-transfected murine fibroblasts was determined by incubation of FITC-cM7 at the indicated concentrations with cells for 30 min at 37° C. and subsequent quantification of the fluorescence in the FL-1 channel. […]

[3] = tested on: adhesion of THP-1 cells to CD40L; assay: Static adhesion assay: activated THP-1 cells on immobilized CD40L; assay type: cell-based; conditions: peptides 50 μM
Procedure: (§4) 96-well plates (Nunc) were coated with sCD40L and incubated with CHO cells expressing constitutively activated Mac-1, as described previously, or THP-1 cells. Cells were allowed to adhere for 20 to 50 minutes. Blocking antibodies (10 μg/ml) were pre-incubating with the cells. As indicated, assays were carried out in the presence of peptides (50 μM). Permeabilization buffer (6 mg/ml phosphatase substrate (Sigma), 1% Triton X-100, 50 mM sodium acetate, pH 5.5) was added to quantify adhering cells by colorimetric reaction. Alternatively, adhering cells were counted. Murine EC were isolated as previously described. Mac-1 expressing CHO were loaded with CFDA-SE (Invitrogen), allowed to adhere for 45 minutes, and quantified under the fluorescence microscope. […] Adhering and rolling cells were quantified in a parallel flow chamber system (Glycotech) at the indicated shear rates and in the presence of the indicated peptides (1 μM) or antibodies (10 μg/ml). […]
96-well plates (Nunc) were coated with sCD40L (10 μg/ml) in PBS overnight at 4° C. […] After removal of unbound cells by washing with PBS, permeabilization buffer (6 mg/ml phosphatase substrate (Sigma), 1% Triton X-100, 50 mM sodium acetate, pH 5.5) was added for 1 hour at 37° C. and adhering cells were quantified by colorimetric reaction at 405 nm. Alternatively, adhering cells were counted under the microscope (Zeiss). […]

CD40L = target: T2, CD40L (Homo sapiens, UniProt P29965); assay: Solid phase assay: direct binding of biotinylated CD40L to immobilized peptides
T2 construct: inserting the coding DNA for amino acids E^108 to L^261 in pHOG-21; c-myc (N); His (N); trimerization domain (N); made in house; host or cells: E. coli TG-1
T2 sequence (P29965 108-261): T1 sequence (P29965 108-261)
Procedure: as §1
The recombinant Mac-1 I-domain was immobilized in 96-well plates (Nunc) in PBS at 4° C. overnight. […] Effect of the peptides M1-M8 was assessed by incubating CD40L (10 μg/ml) in the presence of peptides (50 μM). […] Binding was quantified by addition of TMB-substrate (Pierce), colorimetric reaction at 450 nm. […] Binding of the recombinant Mac-1 I-domain was quantified by addition of anti-His-Biotin monoclonal antibody (Qiagen), HRP-coupled streptavidin (Pierce) and colorimetric reaction at 450 nm. […] For quantification of the binding of CD40L to peptides, peptides were immobilized in 96-well plates overnight at 4° C. in 50 mM sodium carbonate, pH 10.6. […] Absorbance on BSA-coated wells served as negative control and was subtracted.

[4] = tested on: Mac-1 expressing CHO cells; assay: Flow cytometry: binding of CD40L to Mac-1 expressing CHO cells; assay type: cell-based; conditions: peptides 50 μM
Procedure: as §2, §3

[5] = tested on: adhesion of Mac-1-CHO cells to GPIbα; assay: Dynamic flow chamber assay: Mac-1-CHO cells on GPIbα; assay type: cell-based; conditions: peptides 1 μM
Procedure: as §4
For dynamic adhesion assays, 35 mm dishes were coated overnight at 4° C. with 1% BSA, CD40L, GPIbα (Abnova), ICAM-1 (R&D systems) or fibrinogen (Sigma), at a concentration of 10 μg/ml, and 30 μg/ml, respectively. […] Cells were quantified under the microscope (Olympus). […] Adhesion and rolling of peritoneal exudate cells on isolated murine endothelial cells was quantified as described above. […]

EQLKKSKTL [Peptide M7]
IC50 ([1]; concentration dependent): ~4 µM | blocking of CD40L / Mac-1 I-domain binding [1]: emerged as potential candidate inhibitors | blocking of binding of CD40L to human granulocytes and monocytes [2]: the only peptide blocking binding of CD40L to human granulocytes and monocytes | blocking of adhesion of THP-1 cells to CD40L [3]: most efficiently blocked adhesion of THP-1 cells to CD40L | direct binding of CD40L to immobilized peptide (CD40L): mediated direct binding to CD40L | blocking of binding of CD40L to Mac-1-CHO cells [4]: neutralized binding of CD40L

PITQLLGRTHTATGIRK (therapeutically active peptide) [Peptide M2, GPIbα-specific control peptide]
blocking of CD40L / Mac-1 I-domain binding [1]: not affecting CD40L-Mac-1 binding | effect on adhesion of Mac-1-CHO cells to GPIbα [5]: blocked the interaction between Mac-1 and GPIbα
